According to EP0072027A1, “Antiviral compounds” (THE WELLCOME FOUNDATION LIMITED, priority 1981, dated 1983):
Marks after values point to notes of the source that are not given here.

Experiments:
[1] = tested on: Equine rhinopneumonitis virus (EHV-1); assay: In vivo activity against equine rhinopneumonitis virus in hamsters (Example 14), intraperitoneal and oral; parameters: species or system Syrian weanling hamsters
Protocol: Male cream Syrian weanling hamsters, 40-50 g, 21-24 days old, were caged in groups of 5 and given water and food ad lib.
Equine rhinopneumonitis virus (EHV-1), hamster adapted Vaccine Strain 'Pneumabort' was used; the vaccine was diluted 10^-1 in tissue culture fluid and this stock stored in 1 ml aliquots in sealed glass vials at -70°C. On Day 0 hamsters to be infected received 0.2 ml stock vaccine virus, diluted further 2 x 10^-1 in phosphate buffered saline, subcutaneously in the left flank.
9-/(2-Hydroxy-l-hydroxymethylethoxy)methyl/guanine (hereinafter referred to as 759U) and acyclovir were made up as aqueous solutions in sterile distilled water in the concentrations specified below.
Intraperitoneal administration: from Day 0 to Day 4, inclusive, hamsters received 759U or acyclovir in divided twice daily doses in aqueous solution, the concentration of 759U varying as following, namely 5 mg/ml to give a dose rate of 100 or 50 mg/kg/day, 1.2 mg/ml for 20 mg/kg/day, […] for 4 mg/kg/day and 0.036 mg/ml for 2 mg/kg/day. Untreated control hamsters received an equivalent volume of sterile distilled water.
A stock solution of 759U was made in sterile distilled water at 0.304 mg/ml and then diluted in 3-fold steps to 0.101 and 0.034 mg/ml. Hamsters were given medicated drinking water for 5 days commencing 5 hours pre-infection. A control group was supplied with unmedicated water.
Acyclovir was dissolved in sterile distilled water at 2 mg/ml with the addition of a little sodium hydroxide and warming to 42°C to facilitate solution. Hamsters were given medicated drinking water, containing acyclovir at 2 mg/ml, for 5 days commencing 5 hours pre-infection. […] A control group supplied with unmedicated water was set up.

Herpes simplex type 1 = assay: In vitro plaque reduction in VERO cell cultures (Example 16); type: cell-based; details: for IC50: Human alphaherpesvirus 1, Vero, VERO cells
Protocol: 60mm plastic cell culture dishes were seeded with a VERO cell suspension (6 ml of 2 x 10^5 cells/ml) in VERO cell growth medium comprising 5% foetal calf serum, 10% Eagles minimal essential medium, 0.11% sodium bicarbonate,0.25% Crystamycin.
(50,000 units/ml sodium benzyl penicillin B.P. and 50 mg/ml streptomcyin sulphate B.P.). The dishes were gently shaken to ensure the complete dispersion of the cells and then the cultures were incubated at 37°C in an atmosphere of 5% CO2/air overnight to attain confluency. The growth medium was then replaced with 2 ml of virus (Herpes simplex type 1) inoculum in phosphate buffered saline (PBS). The virus concentration was such as to induce the formation of 200-400 plaques/plate. A period of 1 hour was allowed for virus absorption at 37°C in 5% COZair, after which time the plates were drained and overlay medium (8 ml) was added at 42 °C. The overlay medium consisted of 0.6% agarose, 2% foetal calf serum, 10% Eagle's minimal essential medium, 0.11% sodium bicarbonate and 0.25% Crystamycin.
Doubling dilutions in micromolarity of active compound were prepared in the overlay and replicate cultures were fed with the maintenance medium overlay containing a range of concentrations of the compound. Untreated virus control cultures and uninfected cultures were also prepared. The overlay was allowed to solidify at room temperature before the cultures were returned to the incubator at 37°C in 5% CO2/air for 4 days. The cultures were then fixed with 10% formalin in PBS for 30 minutes to 1 hour; the overlay was removed and the cells were stained with 0.05% w/v methyl violet in 20% methanol. The resultant plaques were counted and expressed as a percentage of the plaque count of the untreated virus control cultures. These values were then plotted against the log10 of the compound concentration and the IC50 values representing the amount of the compound required to reduce the plaque count by 50% was read from the resulting dose-response line.

herpes virus = assay: In vivo activity against herpetic encephalitis, intracerebrally infected mice (Example 17); details: for Mean reciprocal survival time: 100 mg/kg oral twice daily for 5 days, around 300 x LD50 intracerebrally, 14 days observation
Protocol: Swiss mice weighing 12-15 g were anaesthetised with ether and inoculated intracerebrally with 0.025 ml of a tissue culture preparation of type herpes virus. The mice were examined daily for sign of herpes encephalitis i.e. cerebral irritation leading to paralysis, coma and death. […] The viscera of the mice were examined for signs of infection with bacteria or other agents and if no abnormalities were found the brains were removed asceptically and ground to a smooth paste. The homogenate was resuspended in 4 ml of tissue culture maintenance medium to each brain, and mixed with glycerol in the ratio 2:1. Mouse brains weigh approximately 400 mg and the preparation thus represented a dilution of 10^-1.
The stocks of virus thus prepared were titrated in mice to determine the LD50 titre by inoculating mice intracerebrally with 10-fold dilutions of the stock preparation of virus and subsquently examined twice daily for signs of infection. The LD50 titre was calculated by the Karber method.
Groups of 5 mice were infected intracerebrally with stock virus diluted to give a dose of around 300 x LD50. The compound under test was administered twice daily as a suspension by the oral route at a dose of 100 mg/kg. The animals were examined twice daily and survival times were recorded to the nearst half-day. Dosing was carried out for 5 days and the total period of observation was 14 days. Survival times were converted to recipocals and the mean survival time was determined for each group L. Bauer, D. J., Brit. J. Exp. Path., 1960, 41, 130).

[2] = 50 mg/kg/day intraperitoneal, Day 2, 10 in group
[3] = 50 mg/kg/day intraperitoneal, Day 3, 10 in group
[4] = 50 mg/kg/day intraperitoneal, Day 4, 10 in group
[5] = 50 mg/kg/day intraperitoneal, Day 5, 10 in group
[6] = 50 mg/kg/day intraperitoneal, Day 6, 10 in group
[7] = 50 mg/kg/day intraperitoneal, Day 7, 10 in group
[8] = 100 mg/kg/day intraperitoneal, Day 2, 10 in group
[9] = 100 mg/kg/day intraperitoneal, Day 3, 10 in group
[10] = 100 mg/kg/day intraperitoneal, Day 4, 10 in group
[11] = 100 mg/kg/day intraperitoneal, Day 5, 10 in group
[12] = 100 mg/kg/day intraperitoneal, Day 6, 10 in group
[13] = 100 mg/kg/day intraperitoneal, Day 7, 10 in group
[14] = Experiment 1, plaque count reduced by 50%
[15] = Experiment 2, plaque count reduced by 50%
[16] = Experiment 3, plaque count reduced by 50%

Nc1nc2c(ncn2COCCO)c(=O)[nH]1 [acyclovir, 9-(2-hydroxyethoxymethyl) guanine, reference compound]
Cumulative mortality [1, 2]: 0
Cumulative mortality [1, 3]: 1
Cumulative mortality [1, 4]: 2
Cumulative mortality [1, 5]: 5
Cumulative mortality [1, 6]: 6
Cumulative mortality [1, 7]: 6
Cumulative mortality [1, 8]: 0
Cumulative mortality [1, 9]: 0
Cumulative mortality [1, 10]: 1*
Cumulative mortality [1, 11]: 2*
Cumulative mortality [1, 12]: 2*
Cumulative mortality [1, 13]: 3*
Cumulative mortality ([1]; 100 mg/kg/day oral (drinking water 2 mg/ml), Day 2, 12 in group): 0
Cumulative mortality ([1]; 100 mg/kg/day oral (drinking water 2 mg/ml), Day 3, 12 in group): 2
Cumulative mortality ([1]; 100 mg/kg/day oral (drinking water 2 mg/ml), Day 4, 12 in group): 5
Cumulative mortality ([1]; 100 mg/kg/day oral (drinking water 2 mg/ml), Day 5, 12 in group): 7
Cumulative mortality ([1]; 100 mg/kg/day oral (drinking water 2 mg/ml), Day 6, 12 in group): 8
efficacy against EHV-1 ([1]; orally at 100 mg/kg/day for 5 days): poor efficacy
IC50 (Herpes simplex type 1; [14]): 170 nM
IC50 (Herpes simplex type 1; [15]): 75 nM
IC50 (Herpes simplex type 1; [16]): 110 nM
IC50 (Herpes simplex type 1; Mean of Experiments 1-3): 118 nM
Mean reciprocal survival time (herpes virus): 0.26

Nc1nc2c(ncn2COC(CO)CO)c(=O)[nH]1 [Example 759U, 9-[(2-hydroxy-1-hydroxymethylethoxy)methyl]guanine]
Cumulative mortality ([1]; 2 mg/kg/day intraperitoneal, Day 2, 10 in group): 0
Cumulative mortality ([1]; 2 mg/kg/day intraperitoneal, Day 3, 10 in group): 0
Cumulative mortality ([1]; 2 mg/kg/day intraperitoneal, Day 4, 10 in group): 0
Cumulative mortality ([1]; 2 mg/kg/day intraperitoneal, Day 5, 10 in group): 0
Cumulative mortality ([1]; 2 mg/kg/day intraperitoneal, Day 6, 10 in group): 0
Cumulative mortality ([1]; 2 mg/kg/day intraperitoneal, Day 7, 10 in group): 0
control of virus-induced mortality ([1]; 2 mg/kg/day intraperitoneally): complete control
Cumulative mortality ([1]; 3 mg/kg/day oral (drinking water), Day 2, 10 in group): 0
Cumulative mortality ([1]; 3 mg/kg/day oral (drinking water), Day 3, 10 in group): 1
Cumulative mortality ([1]; 3 mg/kg/day oral (drinking water), Day 4, 10 in group): 1
Cumulative mortality ([1]; 3 mg/kg/day oral (drinking water), Day 5, 10 in group): 1
Cumulative mortality ([1]; 3 mg/kg/day oral (drinking water), Day 6, 10 in group): 1
Cumulative mortality ([1]; 3 mg/kg/day oral (drinking water), Day 7, 10 in group): 1
Cumulative mortality ([1]; 4 mg/kg/day intraperitoneal, Day 2, 10 in group): 0
Cumulative mortality ([1]; 4 mg/kg/day intraperitoneal, Day 3, 10 in group): 0
Cumulative mortality ([1]; 4 mg/kg/day intraperitoneal, Day 4, 10 in group): 0
Cumulative mortality ([1]; 4 mg/kg/day intraperitoneal, Day 5, 10 in group): 0
Cumulative mortality ([1]; 4 mg/kg/day intraperitoneal, Day 6, 10 in group): 0
Cumulative mortality ([1]; 4 mg/kg/day intraperitoneal, Day 7, 10 in group): 0
Cumulative mortality ([1]; 13 mg/kg/day oral (drinking water), Day 2, 10 in group): 0
Cumulative mortality ([1]; 13 mg/kg/day oral (drinking water), Day 3, 10 in group): 0
Cumulative mortality ([1]; 13 mg/kg/day oral (drinking water), Day 4, 10 in group): 0
Cumulative mortality ([1]; 13 mg/kg/day oral (drinking water), Day 5, 10 in group): 0
Cumulative mortality ([1]; 13 mg/kg/day oral (drinking water), Day 6, 10 in group): 0
Cumulative mortality ([1]; 13 mg/kg/day oral (drinking water), Day 7, 10 in group): 0
Cumulative mortality ([1]; 20 mg/kg/day intraperitoneal, Day 2, 10 in group): 0
Cumulative mortality ([1]; 20 mg/kg/day intraperitoneal, Day 3, 10 in group): 0
Cumulative mortality ([1]; 20 mg/kg/day intraperitoneal, Day 4, 10 in group): 0
Cumulative mortality ([1]; 20 mg/kg/day intraperitoneal, Day 5, 10 in group): 0
Cumulative mortality ([1]; 20 mg/kg/day intraperitoneal, Day 6, 10 in group): 0
Cumulative mortality ([1]; 20 mg/kg/day intraperitoneal, Day 7, 10 in group): 0
Cumulative mortality ([1]; 39 mg/kg/day oral (drinking water), Day 2, 10 in group): 0
Cumulative mortality ([1]; 39 mg/kg/day oral (drinking water), Day 3, 10 in group): 0
Cumulative mortality ([1]; 39 mg/kg/day oral (drinking water), Day 4, 10 in group): 0
Cumulative mortality ([1]; 39 mg/kg/day oral (drinking water), Day 5, 10 in group): 0
Cumulative mortality ([1]; 39 mg/kg/day oral (drinking water), Day 6, 10 in group): 0
Cumulative mortality ([1]; 39 mg/kg/day oral (drinking water), Day 7, 10 in group): 0
Cumulative mortality [1, 2]: 0
Cumulative mortality [1, 3]: 0
Cumulative mortality [1, 4]: 0
Cumulative mortality [1, 5]: 0
Cumulative mortality [1, 6]: 0
Cumulative mortality [1, 7]: 0
Cumulative mortality [1, 8]: 0
Cumulative mortality [1, 9]: 0
Cumulative mortality [1, 10]: 0
Cumulative mortality [1, 11]: 0
Cumulative mortality [1, 12]: 0
Cumulative mortality [1, 13]: 1*
efficacy against EHV-1 ([1]; orally at 3 mg/kg/day): only limited mortality
efficacy against EHV-1 ([1]; orally at 13 mg/kg/day): completely effective
activity in vitro against Herpes simplex type I compared with acyclovir (Herpes simplex type 1): greater activity
IC50 (Herpes simplex type 1; [14]): 90 nM
IC50 (Herpes simplex type 1; [15]): 50 nM
IC50 (Herpes simplex type 1; [16]): 36 nM
IC50 (Herpes simplex type 1; Mean of Experiments 1-3): 59 nM
Mean reciprocal survival time (herpes virus): 0.15
activity given orally to intracerebrally infected mice compared with acyclovir (herpes virus; same conditions): much greater than acyclovir
